Test results from patent US20040127519A1 (Pharmacia Corporation, priority 2002, published 2004).

Target: Recombinant MAPKAPK2 (Homo sapiens, UniProt P49137)
Assay: Determination of MK-2 IC50 (HSP-peptide phosphorylation, anion exchange resin capture assay)
Type: biochemical
Procedure: The phosphorylation of HSP-peptide ([…]) by MAPKAPK2 was measured using an anion exchange resin capture assay method. […] The reaction was terminated and [γ^33P]ATP was removed from solution by the addition of 150 μl of AG 1×8 ion exchange resin in 900 mM sodium formate pH 3.0. A 50 μl aliquot of head volume was removed from the quenched reaction mixture and added to a 96-well plate, 150 μl of Microscint-40 (Packard) was added and the amount of phosphorylated-peptide was determined. Allow the Microscint to sit in the plates for 60 minutes prior to counting.
Compounds are evaluated as potential inhibitors of the MK2 kinase by measuring their effects on MK2 phosphorylation of the peptide substrate. Compounds may be screened initially at two concentrations prior to determination of IC50 values. Screening results are expressed as percent inhibition at the concentrations of compound tested. For IC50 value determinations, compounds are tested at six concentrations in ten-fold serial dilutions with each concentration tested in triplicate. Results are expressed as IC50 values in micromolar. The assay is performed at a final concentration of 2% DMSO.

[1] = MK-2 Avg. IC50, Table 2, tricyclic aminocyanopyridine MK-2 inhibitors
[2] = MK-2 Avg. IC50, Table I, aminocyanopyridine MK-2 inhibitors

Chain of Recombinant MAPKAPK2 (P49137 whole entry, species assumed): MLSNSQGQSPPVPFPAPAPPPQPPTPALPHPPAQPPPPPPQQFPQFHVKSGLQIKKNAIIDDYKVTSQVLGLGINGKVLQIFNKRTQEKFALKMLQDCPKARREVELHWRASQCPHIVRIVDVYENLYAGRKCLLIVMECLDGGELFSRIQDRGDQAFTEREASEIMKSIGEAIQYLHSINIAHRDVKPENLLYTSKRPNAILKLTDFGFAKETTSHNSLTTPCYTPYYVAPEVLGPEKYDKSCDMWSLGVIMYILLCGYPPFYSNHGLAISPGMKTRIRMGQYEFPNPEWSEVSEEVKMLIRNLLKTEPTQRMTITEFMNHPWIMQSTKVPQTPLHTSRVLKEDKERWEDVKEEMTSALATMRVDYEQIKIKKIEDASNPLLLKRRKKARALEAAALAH

| SMILES | IC50 [1] [µM] | IC50 [2] [µM] |
| --- | --- | --- |
| N#Cc1c(N)nc2c(c1N)Cc1ccc(OCCO)cc1O2 [Example 10] | 0.483 |  |
| N#Cc1c(-c2ccco2)cc(-c2ccco2)nc1N [Example 75] |  | 47.6 |
| COc1cc2c(cc1OC)Oc1nc(N)c(C#N)c(NCc3ccccc3)c1C2 [Example 55] | 27.4 |  |
| N#Cc1c(-c2ccco2)cc(-c2ccsc2)nc1N [Example 106] |  | 97.3 |
| N#Cc1c(-c2ccco2)cc(-c2cccc(B(O)O)c2)nc1N [Example 124] |  | 126 |
| CCOCCNc1c(C#N)c(N)nc2c1Cc1ccc(OCCOCC)cc1O2 [Example 44] | 9.66 |  |
| Cn1cccc1-c1cc(-c2ccco2)c(C#N)c(N)n1 [Example 83] |  | 54.4 |
| COc1ccc2c(c1)Cc1c(nc(N)c(C#N)c1N)O2 [Example 53] | 19.7 |  |
| COc1ccc(Nc2c(C#N)c(N)nc3c2Cc2cc(OC)c(OC)cc2O3)cc1 [Example 40] | 6.11 |  |
| CC(C)OCC1Cc2c(nc(N)c(C#N)c2N)O1 (centres unmarked) [Example 123] |  | 125 |
| N#Cc1c(-c2ccccc2F)cc(-c2ccc[nH]2)nc1N [Example 58] |  | 29.3 |
| N#Cc1c(N)nc2c(c1N)Cc1cc(OCCN)c(OCCN)cc1O2 [Example 31] | 2.55 |  |
| N#Cc1c(N)nc2c(c1-c1ccco1)CCc1cc(N)ccc1-2 [Example 74] |  | 46.8 |
| COc1cccc2c1Oc1nc(N)c(C#N)c(N)c1C2C(C#N)C#N (centres unmarked) [Example 54] | 21.2 |  |
| N#Cc1c(N)nc2c(c1N)Cc1cc(N)ccc1O2 [Example 12] | 0.514 |  |
| N#Cc1c(N)nc2c(c1-c1ccco1)CCc1c[nH]cc1-2 [Example 24] |  | 6.2 |
| N#Cc1c(N)nc2c(c1N)CC(CO)O2 (centres unmarked) [Example 111] |  | 106 |
| Cn1cnc(-c2cc(-c3ccccc3)nc(N)c2C#N)c1 [Example 28] |  | 7.63 |
| CC(C)(C)NS(=O)(=O)c1ccc(-c2cc(-c3ccco3)c(C#N)c(N)n2)cc1 [Example 64] |  | 36.4 |
| CCOC(=O)c1ccc(-c2cc(-c3cnc[nH]3)c(C#N)c(N)n2)cc1 [Example 78] |  | 49.1 |
| Cn1ccc(-c2cc(-c3ccco3)c(C#N)c(N)n2)c1 [Example 60] |  | 32.1 |
| N#Cc1c(N)nc2c(c1-c1ccco1)CCc1ccccc1-2 [Example 36] |  | 9.42 |
| C=CCOCC1Cc2c(nc(N)c(C#N)c2N)O1 (centres unmarked) [Example 116] |  | 118 |

| SMILES | IC50 [1] [µM] | IC50 [2] [µM] |
| --- | --- | --- |
| Cn1cnc(-c2cc(-c3ccco3)nc(N)c2C#N)c1 [Example 8] |  | 2.88 |
| N#Cc1c(-c2ccc(C(F)(F)F)cc2F)cc(-c2ccco2)nc1N [Example 128] |  | 133 |
| N#Cc1c(-c2ccc(C(F)(F)F)cc2)cc(-c2ccco2)nc1N [Example 112] |  | 107 |
| N#Cc1c(N)nc2c(c1-c1ccco1)CCc1cnccc1-2 [Example 26] |  | 6.48 |
| CCCCC1Cc2c(nc(N)c(C#N)c2N)O1 (centres unmarked) [Example 77] |  | 49.1 |
| COCC1Cc2c(nc(N)c(C#N)c2N)O1 (centres unmarked) [Example 118] |  | 119 |
| N#Cc1c(N)nc2c(c1-c1cccc(F)c1)CCc1n[nH]cc1-2 [Example 31] |  | 8.5 |
| N#Cc1c(N)nc2c(c1-c1nnc[nH]1)CCc1ccccc1-2 [Example 43] |  | 13.1 |
| N#Cc1c(N)nc2c(c1-c1nnc[nH]1)CCc1cc(C(=O)O)ccc1-2 [Example 19] |  | 5.74 |
| N#Cc1c(N)nc2c(c1N)Cc1cc(-c3ccccc3)ccc1O2 [Example 65] | 83.8 |  |
| N#Cc1c(N)nc2c(c1-c1ccco1)CCc1c(O)cccc1-2 [Example 101] |  | 82.6 |
| CC1Cc2c(nc(N)c(C#N)c2-c2ccco2)-c2ccccc21 (centres unmarked) [Example 117] |  | 119 |
| CN(C)c1ccc2c(c1)Cc1c(nc(N)c(C#N)c1N)O2 [Example 52] | 17.6 |  |
| N#Cc1c(N)nc2c(c1N)C(C(C#N)C#N)c1cc(O)ccc1O2 (centres unmarked) [Example 35] | 4.22 |  |
| N#Cc1c(-c2ccco2)cc(-c2nccs2)nc1N [Example 142] |  | 167 |
| N#Cc1c(-c2ccccc2F)cc(-c2ccc(O)c(O)c2)nc1N [Example 32] |  | 9.2 |
| N#Cc1c(N)nc(SCC(=O)c2ccc(Cl)cc2)c(C#N)c1-c1ccco1 [Example 87] |  | 63.3 |
| N#Cc1c(N)nc2c(c1N)CC(C(F)(F)F)O2 (centres unmarked) [Example 23] |  | 6.14 |
| N#Cc1c(-c2c[nH]c(C(N)=O)c2)cc(-c2ccco2)nc1N [Example 6] |  | 2.41 |
| CSc1cc(-c2ccco2)nc(N)c1C#N [Example 50] |  | 22.5 |
| COc1ccc2c(c1)Oc1nc(N)c(C#N)c(N)c1C2 [Example 34] | 3.24 |  |
| CS(=O)(=O)c1ccc(-c2cc(-c3cnc[nH]3)c(C#N)c(N)n2)cc1 [Example 72] |  | 45.3 |
| N#Cc1c(-c2ccc(F)cc2)cc(-c2ccco2)nc1N [Example 140] |  | 165 |

| SMILES | IC50 [1] [µM] | IC50 [2] [µM] |
| --- | --- | --- |
| COc1ccc(Nc2c(C#N)c(N)nc3c2Cc2cc(OC)c(OC)cc2O3)cc1 [Example 33] | 2.98 |  |
| N#Cc1c(N)nc2c(c1-c1cccc(F)c1F)CCc1[nH]ncc1-2 [Example 3] |  | 1.95 |
| N#Cc1c(-c2ccccc2F)cc(-c2ccco2)nc1N [Example 14] |  | 4.41 |
| N#Cc1c(N)nc2c(c1-c1cccnc1)CCc1n[nH]cc1-2 [Example 86] |  | 62.5 |
| N#Cc1c(N)nc2c(c1-c1cccc3c1OCO3)CCc1[nH]ncc1-2 [Example 70] |  | 43.2 |
| CCC1Cc2c(nc(N)c(C#N)c2N)O1 (centres unmarked) [Example 65] |  | 37.9 |
| N#Cc1c(-c2c[nH]c(C(=O)O)c2)cc(-c2ccco2)nc1N [Example 76] |  | 48.7 |
| N#Cc1c(-c2ccc(Br)cc2)cc(-c2ccco2)nc1N [Example 126] |  | 130 |
| COc1cccc2c1Oc1nc(N)c(C#N)c(N)c1C2 [Example 24] | 1.37 |  |
| N#Cc1c(-c2ccccc2Br)cc(-c2ccco2)nc1N [Example 53] |  | 26.1 |
| N#Cc1c(N)nc2c(c1N)Cc1ccc(OCCN)cc1O2 [Example 19] | 0.82 |  |
| COc1ccc(-c2c(C#N)c(N)nc3c2CCc2[nH]ncc2-3)cc1 [Example 40] |  | 12 |
| N#Cc1c(-c2ccco2)cc(-c2ccc(Cl)c(Cl)c2)nc1N [Example 135] |  | 156 |
| COc1ccccc1-c1c(C#N)c(N)nc2c1CCc1n[nH]cc1-2 [Example 129] |  | 136 |
| N#Cc1c(N)nc2c(c1N)Cc1cccc(OCCN)c1O2 [Example 71] | 161 |  |
| N#Cc1c(N)nc2c(c1N)Cc1ccc(OCC(=O)O)cc1O2 [Example 23] | 0.916 |  |
| COc1ccc(OCC2Cc3c(nc(N)c(C#N)c3N)O2)cc1 (centres unmarked) [Example 93] |  | 69.8 |
| N#Cc1c(-c2cnc[nH]2)cc(-c2cccc(O)c2)nc1N [Example 20] |  | 5.81 |
| N#Cc1c(-c2ccco2)cc(-c2cccc3cccc(O)c23)nc1N [Example 133] |  | 153 |
| N#Cc1c(N)nc2c(c1-c1c(F)cccc1F)CCc1[nH]ncc1-2 [Example 11] |  | 3.59 |
| N#Cc1c(-c2ccco2)cc(-c2cc[nH]n2)nc1N [Example 29] |  | 7.72 |
| COc1ccc2c(c1O)Oc1nc(N)c(C#N)c(N)c1C2 [Example 15] | 0.682 |  |
| CC1Cc2n[nH]cc2-c2nc(N)c(C#N)c(-c3ccccc3F)c21 (centres unmarked) [Example 130] |  | 142 |

| SMILES | IC50 [1] [µM] | IC50 [2] [µM] |
| --- | --- | --- |
| CNc1c(C#N)c(N)nc2c1Cc1cc(OC)c(OC)cc1O2 [Example 26] | 1.69 |  |
| C#CCOCC1Cc2c(nc(N)c(C#N)c2N)O1 (centres unmarked) [Example 110] |  | 105 |
| N#Cc1c(N)nc2c(c1N)Cc1cc(O)ccc1S2 [Example 51] | 17.4 |  |
| N#Cc1c(-c2ccco2)cc(-c2c[nH]c3ccccc23)nc1N [Example 119] |  | 120 |
| CC(=O)Nc1ccc(-c2c(C#N)c(N)nc3c2CCc2[nH]ncc2-3)cc1 [Example 62] |  | 35.9 |
| COC(=O)c1ccc(-c2cc(-c3ccco3)c(C#N)c(N)n2)cc1 [Example 150] |  | 199 |
| N#Cc1c(N)nc2c(c1N)Cc1cc(C(=O)O)ccc1O2 [Example 20] | 0.857 |  |
| COc1ccc(-c2cc(-c3cnc[nH]3)c(C#N)c(N)n2)cc1 [Example 37] |  | 9.43 |
| N#Cc1c(-c2ccco2)cc(-c2ccc(C(=O)O)cc2)nc1N [Example 16] |  | 4.63 |
| N#Cc1c(-c2cnc[nH]2)cc(-c2ccccc2)nc1N [Example 35] |  | 9.4 |
| N#Cc1ccc(-c2c(C#N)c(N)nc3c2CCc2[nH]ncc2-3)cc1 [Example 81] |  | 52.1 |
| N#Cc1ccc(-c2ccco2)nc1N [Example 98] |  | 77.5 |
| N#Cc1c(-c2ccccc2B(O)O)cc(-c2ccco2)nc1N [Example 108] |  | 99.6 |
| CCc1c(C#N)c(N)nc2[nH]nc(N)c12 [Example 131] |  | 146 |
| N#Cc1c(N)nc2c(c1-c1ccc(C(=O)O)cc1)CCc1[nH]ncc1-2 [Example 134] |  | 155 |
| CCOCCOc1cc2c(cc1O)Cc1c(nc(N)c(C#N)c1N)O2 [Example 14] | 0.62 |  |
| CC1(C)Cc2n[nH]cc2-c2nc(N)c(C#N)c(-c3ccco3)c21 [Example 114] |  | 109 |
| CC1Cc2c(nc(N)c(C#N)c2N)O1 (centres unmarked) [Example 71] |  | 44.1 |
| COc1ccc(-c2cc(-c3nnc[nH]3)c(C#N)c(N)n2)cc1 [Example 48] |  | 17.3 |
| N#Cc1c(-c2ccccc2O)cc(-c2ccco2)nc1N [Example 146] |  | 185 |
| N#Cc1c(-c2ccc(Oc3ccccc3)cc2)cc(-c2ccco2)nc1N [Example 85] |  | 59.3 |
| N#Cc1c(N)nc2c(c1-c1ccco1)CCc1cc(C(=O)O)ccc1-2 [Example 5] |  | 2.35 |
| N#Cc1c(-c2ccccc2F)cc(-c2ccco2)nc1N1CCCCC1 [Example 143] |  | 176 |
